Values joined by “and” are separate entries in the source; they are usually repeats but may differ in a detail not shown here. Equal values may be shown once. Some results are limits rather than exact numbers.

The first assay addresses HIV-1 reverse transcriptase (RT).
Test: not given
Also on record: method as in PMID 8778237. The note with it: cited from earlier work.
With `CC(C)=CCOc1c(CC=C(C)C)c(=O)[nH]c2ccccc12` [Compound 3], the IC50 was 8 µM.

Another assay concerns the target recombinant HIV-1 RT (Human immunodeficiency virus type 1 group M subtype B, UniProt P04585). The experiment in a line: HIV-1 RT inhibitory assay (ELISA RT kit, Roche). The note with it: IC50 (effective concentration that inhibits 50% of HIV-1 RT), mean of two independent experiments.
Description: HIV-1 reverse transcriptase (RT) activity was measured using a commercially available ELISA RT kit (Roche) according to the instructions of the manufacturer. The compounds were incubated with DIG-labeled reaction mixture at 37 °C for 2 h, then anti-DIG-POD solution was added, followed by substrate ABTS.
Take `O=c1cc(Sc2ccccc2)c2cc(Cl)ccc2[nH]1` [Compound 4a1, 6-Chloro-4-(phenylthio)quinolin-2(1H)-one]: the IC50 worked out at 5.6 µM. As to `Cc1cc(C)cc(Sc2cc(=O)[nH]c3ccc(Cl)cc23)c1` [Compound 4a2, 6-Chloro-4-(3,5-dimethylphenylthio)quinolin-2(1H)-one], the IC50 came to 0.21 µM. Regarding `Cc1cc(C)cc(Sc2cc(=O)[nH]c3ccccc23)c1` [Compound 4a3, 4-(3,5-dimethylphenylthio)quinolin-2(1H)-one], the IC50 was 13 µM and 18 µM. Turning to `O=c1cc([S+]([O-])c2ccccc2)c2cc(Cl)ccc2[nH]1` (stereo not shown) [Compound 4b1, 6-Chloro-4-(phenylsulfinyl)quinolin-2(1H)-one], the IC50 was 8.9 µM.

On to `Cc1cc(C)cc([S+]([O-])c2cc(=O)[nH]c3ccc(Cl)cc23)c1` (stereo not shown) [Compound 4b2, 6-Chloro-4-(3,5-dimethylphenylsulfinyl)quinolin-2(1H)-one], for which the IC50 worked out at 2.6 µM. Consider `O=c1cc(S(=O)(=O)c2ccccc2)c2cc(Cl)ccc2[nH]1` [Compound 4c1, 6-Chloro-4-(phenylsulfonyl)quinolin-2(1H)-one], for which the IC50 came to 49 µM.

Consider `Cc1cc(C)cc(S(=O)(=O)c2cc(=O)[nH]c3ccc(Cl)cc23)c1` [Compound 4c2, 6-Chloro-4-(3,5-dimethylphenylsulfonyl)quinolin-2(1H)-one], for which the IC50 amounted to 10 µM.

Take `O=c1cc(Oc2ccccc2)c2cc(Cl)ccc2[nH]1` [Compound 4d1, 6-Chloro-4-phenoxyquinolin-2(1H)-one]: the IC50 stood at 3 µM. Same read-out and setting: the result for `Cc1cc(C)cc(Oc2cc(=O)[nH]c3ccc(Cl)cc23)c1` [Compound 4d2, 6-Chloro-4-(3,5-dimethylphenoxy)quinolin-2(1H)-one] reads 0.15 µM; that for `O=c1cc(-c2ccccc2)c2cc(Cl)ccc2[nH]1` [Compound 5a, 6-Chloro-4-phenylquinolin-2(1H)-one], > 100 µM; that for `O=c1cc(-c2ccccc2F)c2cc(Cl)ccc2[nH]1` [Compound 5b, 6-Chloro-4-(2-fluorophenyl)quinolin-2(1H)-one], > 100 µM. On to `O=c1cc(-c2ccccc2Cl)c2cc(Cl)ccc2[nH]1` [Compound 5c, 6-Chloro-4-(2-chlorophenyl)quinolin-2(1H)-one], for which the IC50 is > 100 µM.

A word on the IC50: it is the concentration at which inhibition is half-maximal.

(Values after article PMC6264335, “Synthesis of Quinolin-2-one Alkaloid Derivatives and Their Inhibitory Activities against HIV-1 Reverse Transcriptase” (Molecules, 2011).)
